Key:
MDA-MB-468 cells = assay: Cellular proliferation/cytotoxicity assay (Alamar Blue), MDA-MB-468; details: Homo sapiens, MDA-MB-468, 48 h, read-out: Anti-proliferative/cytotoxic activity: IC50 MDA468
MCF7 cells = assay: Cellular proliferation/cytotoxicity assay (Alamar Blue), MCF7; details: Homo sapiens, MCF7, 48 h, read-out: Anti-proliferative/cytotoxic activity: IC50 MCF7
Experimental: The anti-proliferative activity of the compounds as described herein, is evaluated using MCF7 and MDA-MB-468 (ATCC HTB-22 and HTB-132) cell lines and the Alamar Blue (Resazurin) cell viability assay (O'Brien et al. Eur J Biochem 267, 5421-5426, 2000). Resazurin is reduced to the fluorescent resorufin by cellular dehydrogenase activity, correlating with viable, proliferating cells. Test compounds are dissolved as 10 mM solutions in DMSO and subsequently diluted. MCF7 or MDA-MB-434 cells were seeded into 96 well flat bottom plates at a density of 10000 cells/well (MCF7) or 5000 cells/well (MDA-MB-468) in a volume of 200 μl/well. 24 hours after seeding, 1 μl each of the compound dilutions are added into each well of the 96 well plates. Each compound dilution is tested as at least as duplicates. Wells containing untreated control cells were filled with 200 μl DMEM containing 0.5% v:v DMSO. The cells are then incubated with the substances for 48 hours at 37° C. in a humidified atmosphere containing 5% carbon dioxide. To determine cell viability, 20 μl of a Resazurin solution (Sigma; 90 mg/l) are added. After 4 hours incubation at 37° C. the fluorescence is measured at an extinction of 544 nm and an emission of 590 nm (Wallac Victor2; Perkin Elmer, USA). For the calculation of the cell viability the emission value from untreated cells is set as 100% viability and the emission rates of treated cells are set in relation to the values of untreated cells. Viabilities are expressed as % values. The corresponding IC50 values of the compounds for cytotoxic activity are determined from the concentration-effect curves by means of non-linear regression. The analysis of the data is performed using a biostatistical program (GraphPad Prism, USA).

GST-ΔPH-Akt1 = target: T1, GST-ΔPH-Akt1 (Homo sapiens, UniProt P31749); assay: Biochemical ΔPH Akt1 assay (flashplate, 33P incorporation into histone 2B); details: 100 nM ATP, histone 2B substrate; read-out: ΔPHAkt1 inhibition: IC50
T1 construct: named GST-deltaPH-Akt1; 107-480aa; cloned in the pAcGl vector; GST (N); made in house; host or cells: SF9 insect cells (baculovirus vector pAcG1), co-expressed with PDK1
Source text: For the biochemical assay ΔPHAkt1 is used devoid of its PH domain as a GST fusion protein (named GST-deltaPH-Akt1; 107-480aa; cloned in the pAcGl vector (BD Biosciences Pharmingen)), co-expressed with PDK1 in SF9 insect cells. The protein is purified using glutathion-affinity chromatography by standard protocols.
In order to study the inhibition of Akt according to the invention, a flashplate-based assay has been developed.
The Akt1 assay is a biochemical assay using Akt1 devoid of its PH domain and co-expressed with PDK1 in insect cells. The GST-ΔPH-Akt1 assay is run in 96 well plates by incubating 100 ng/well GST-ΔPH-Akt1, 100 ng/well histone 2B (Roche, #223514) as substrate, 10 μl of compound of invention (test compounds were dissolved as 10 mM solutions in dimethylsulfoxide (DMSO) and subsequently diluted) and 100 nM ATP (including ^33P-ATP) in 100 μl of reaction buffer ([…], pH7,5; 3 mM MgCl2; 3 mM MnCl2; 3 μM Na-Orthovanadat; 1 mM DTT; 1 μg/ml PEG8000) for 80 minutes at 30° C. The reactions are terminated by adding 100 μl stopping buffer (2% H3PO4 for 5 minutes) and are washed 3 times by using washing buffer (0.9% NaCl). Relying on the incorporation of ^33P into the protein substrate histone 2B, the detection is based on the adhesion of the phosphorylated protein to the surface of scintillator-coated flash plates (NEN, USA; #SMP-200). This phosphorylation is measured by counting the plate for 60 sec. using a plate reader (Wallac Microbeta; Perkin Elmer, USA).

T1 sequence (P31749 107-480, stated change not applied): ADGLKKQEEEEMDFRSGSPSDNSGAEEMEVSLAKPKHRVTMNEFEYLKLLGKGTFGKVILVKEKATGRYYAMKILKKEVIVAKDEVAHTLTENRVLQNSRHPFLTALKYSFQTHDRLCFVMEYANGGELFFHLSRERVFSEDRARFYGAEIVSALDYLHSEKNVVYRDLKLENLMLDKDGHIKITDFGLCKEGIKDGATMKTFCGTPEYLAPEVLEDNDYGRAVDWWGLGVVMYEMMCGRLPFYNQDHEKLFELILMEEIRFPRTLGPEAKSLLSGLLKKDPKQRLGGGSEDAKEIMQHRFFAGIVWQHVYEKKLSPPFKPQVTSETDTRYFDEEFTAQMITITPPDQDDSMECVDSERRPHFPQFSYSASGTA

Structure (SMILES)	IC50 (MDA-MB-468 cells) [nM]	IC50 (MCF7 cells) [nM]	IC50 (GST-ΔPH-Akt1) [nM]
CN1CCN(Cc2ccc(C(=O)Nc3ccc(Nc4nc(-c5cccc(Br)c5)cc5ccnn45)cc3)cc2)CC1 [Example 2, N-{4-[5-(3-Bromo-phenyl)-pyrazolo[1,5-c]pyrimidin-7-ylamino]-phenyl}-4-(4-methyl-piperazin-1-ylmethyl)-benzamide]	≤ 13600	≤ 16900	
Nc1ccc(C(=O)Nc2ccc(Nc3nc(-c4cccc5c4oc4ccccc45)cc4ccnn34)cc2)cc1 [Example 6, 4-Amino-N-[4-(5-dibenzofuran-4-yl-pyrazolo[1,5-c]pyrimidin-7-ylamino)-phenyl]-benzamide]			≤ 1750
CC(C)(C)c1ccc(C(=O)Nc2ccc(Nc3nc(-c4cccc5c4oc4ccccc45)cc4ccnn34)cc2)cc1 [Example 10, 4-tert-Butyl-N-[4-(5-dibenzofuran-4-yl-pyrazolo[1,5-c]pyrimidin-7-ylamino)-phenyl]-benzamide]			≤ 2450
O=C(Cc1cccc(Cl)c1)Nc1ccc(Nc2nc(-c3cccc4c3oc3ccccc34)cc3ccnn23)cc1 [Example 12, 2-(3-Chloro-phenyl)-N-[4-(5-dibenzofuran-4-yl-pyrazolo[1,5-c]pyrimidin-7-ylamino) -phenyl]-acetamide]			≤ 2450
NCc1ccc(C(=O)Nc2cccc(Nc3nc(-c4cccc5c4oc4ccccc45)cc4ccnn34)c2)cc1 [Example 17, 4-Aminomethyl-N-[3-(5-dibenzofuran-4-yl-pyrazolo[1,5-c]pyrimidin-7-ylamino)-phenyl]-benzamide]	≤ 13600	≤ 16900	≤ 1750
NCc1cccc(C(=O)Nc2cccc(Nc3nc(-c4cccc5c4oc4ccccc45)cc4ccnn34)c2)c1 [Example 18, 3-Aminomethyl-N-[3-(5-dibenzofuran-4-yl-pyrazolo[1,5-c]pyrimidin-7-ylamino)-phenyl]-benzamide]	≤ 13600	≤ 16900	≤ 1750
NCc1ccc(C(=O)Nc2ccc(Nc3nc(-c4cccc5c4oc4ccccc45)cc4ccnn34)cc2)cc1 [Example 19, 4-Aminomethyl-N-[4-(5-dibenzofuran-4-yl-pyrazolo[1,5-c]pyrimidin-7-ylamino)-phenyl]-benzamide]	≤ 13600	≤ 16900	≤ 1750
NCc1cccc(C(=O)Nc2ccc(Nc3nc(-c4cccc5c4oc4ccccc45)cc4ccnn34)cc2)c1 [Example 20, 3-Aminomethyl-N-[4-(5-dibenzofuran-4-yl-pyrazolo[1,5-c]pyrimidin-7-ylamino)-phenyl]-benzamide]	≤ 13600	≤ 16900	≤ 1750
NCCc1ccc(C(=O)Nc2cccc(Nc3nc(-c4cccc5c4oc4ccccc45)cc4ccnn34)c2)cc1 [Example 21, 4-(2-Amino-ethyl)-N-[3-(5-dibenzofuran-4-yl-pyrazolo[1,5-c]pyrimidin-7-ylamino)-phenyl]-benzamide]			≤ 1750
NCCCC(=O)Nc1cccc(Nc2nc(-c3cccc4c3oc3ccccc34)cc3ccnn23)c1 [Example 22, 4-Amino-N-[3-(5-dibenzofuran-4-yl-pyrazolo[1,5-c]pyrimidin-7-ylamino)-phenyl]-butyramide]			≤ 1750
NCc1ccc(C(=O)Nc2ccc(Nc3nc(-c4ccc5cc(O)ccc5c4)cc4ccnn34)cc2)cc1 [Example 44, 4-Aminomethyl-N-{4-[5-(6-hydroxy-naphthalen-2-yl)-pyrazolo[1,5-c]pyrimidin-7-ylamino]-phenyl}-benzamide]			≤ 1750
COc1ccc2cc(-c3cc4ccnn4c(Nc4ccc(NC(=O)c5ccc(CN)cc5)cc4)n3)ccc2c1 [Example 45, 4-Aminomethyl-N-{4-[5-(6-methoxy-naphthalen-2-yl)-pyrazolo[1,5-c]pyrimidin-7-ylamino]-phenyl}-benzamide]	≤ 13600	≤ 16900	≤ 1750
NCc1ccc(C(=O)Nc2ccc(Nc3nc(-c4cccc(-c5ccccc5)c4)cc4ccnn34)cc2)cc1 [Example 71, 4-Aminomethyl-N-[4-(5-biphenyl-3-yl-pyrazolo[1,5-c]pyrimidin-7-ylamino)-phenyl]-benzamide]			≤ 2450
COc1ccc(-c2cccc(-c3cc4ccnn4c(Nc4ccc(NC(=O)c5ccc(CN)cc5)cc4)n3)c2)cc1 [Example 72, 4-Aminomethyl-N-{4-[5-(4′-methoxy-biphenyl-3-yl)-pyrazolo[1,5-c]pyrimidin-7-ylamino]-phenyl}-benzamide]			≤ 1750
CC(=O)Nc1cccc(-c2cccc(-c3cc4ccnn4c(Nc4ccc(NC(=O)c5ccc(CN)cc5)cc4)n3)c2)c1 [Example 73, N-{4-[5-(3′-Acetylamino-biphenyl-3-yl)-pyrazolo[1,5-c]pyrimidin-7-ylamino]-phenyl}-4-aminomethyl-benzamide]			≤ 2450
COc1cccc(-c2cccc(-c3cc4ccnn4c(Nc4ccc(NC(=O)c5ccc(CN)cc5)cc4)n3)c2)c1 [Example 74, 4-Aminomethyl-N-{4-[5-(3′-methoxy-biphenyl-3-yl)-pyrazolo[1,5-c]pyrimidin-7-ylamino]-phenyl}-benzamide]			≤ 2450
NCCc1ccc(C(=O)Nc2ccc(Nc3nc(-c4ccc(-c5ccc(F)cc5)cc4)cc4ccnn34)cc2)cc1 [Example 75, 4-(2-Amino-ethyl)-N-{4-[5-(4′-fluoro-biphenyl-4-yl)-pyrazolo[1,5-c]pyrimidin-7-ylamino]-phenyl}-benzamide]			≤ 1750
O=C(Nc1ccc(Nc2nc(-c3ccc(-c4ccc(F)cc4)cc3)cc3ccnn23)cc1)c1ccc2c(c1)CCNC2 [Example 76, 1,2,3,4-Tetrahydro-isoquinoline-6-carboxylic acid {4-[5-(4′-fluoro-biphenyl-4-yl)-pyrazolo[1,5-c]pyrimidin-7-ylamino]-phenyl}amide]			≤ 1750
COc1cccc(-c2ccc(-c3cc4ccnn4c(Nc4ccc(NC(=O)c5ccc6c(c5)CCNC6)cc4)n3)cc2)c1 [Example 77, 1,2,3,4-Tetrahydro-isoquinoline-6-carboxylic acid {4-[5-(3′-methoxy-biphenyl-4-yl)-pyrazolo[1,5-c]pyrimidin-7-ylamino]-phenyl}amide]			≤ 1750
CC(=O)Nc1cccc(-c2ccc(-c3cc4ccnn4c(Nc4ccc(NC(=O)c5ccc(CCN)cc5)cc4)n3)cc2)c1 [Example 82, N-{4-[5-(3′-Acetylamino-biphenyl-4-yl)-pyrazolo[1,5-c]pyrimidin-7-ylamino]-phenyl}-4-(2-amino-ethyl)-benzamide]			≤ 1750
CC(=O)Nc1cccc(-c2ccc(-c3cc4ccnn4c(Nc4ccc(NC(=O)c5ccc6c(c5)CCNC6)cc4)n3)cc2)c1 [Example 83, 1,2,3,4-Tetrahydro-isoquinoline-6-carboxylic acid {4-[5-(3′-acetylamino-biphenyl-4-yl)-pyrazolo[1,5-c]pyrimidin-7-ylamino]-phenyl}-amide]	≤ 13600	≤ 16900	
NCCc1ccc(C(=O)Nc2ccc(Nc3nc(-c4ccc(Br)cc4)cc4ccnn34)cc2)cc1 [Example 84, 4-(2-Amino-ethyl)-N-{4-[5-(4-bromo-phenyl)-pyrazolo[1,5-c]pyrimidin-7-ylamino]-phenyl}-benzamide]			≤ 1750
COc1cccc(-c2ccc(-c3cc4c(Br)cnn4c(Nc4ccc(NC(=O)c5ccc(CCN)cc5)cc4)n3)cc2)c1 [Example 86, 4-(2-Amino-ethyl)-N-{4-[3-bromo-5-(3′-methoxy-biphenyl-4-yl)-pyrazolo[1,5-]pyrimidin-7-ylamino]-phenyl}-benzamide]			≤ 1750
COc1ccc(-c2ccc(-c3cc4c(Br)cnn4c(Nc4ccc(NC(=O)c5ccc(CN)cc5)cc4)n3)cc2)cc1 [Example 88, 4-Aminomethyl-N-{4-[3-bromo-5-(4′-methoxy-biphenyl-4-yl)-pyrazolo[1,5-c]pyrimidin-7-ylamino]-phenyl}-benzamide]			≤ 1750
NCc1ccc(C(=O)Nc2ccc(Nc3nc(-c4ccc(-c5ccc(F)cc5)cc4)cc4c(Br)cnn34)cc2)cc1 [Example 89, 4-Aminomethyl-N-{4-[3-bromo-5-(4′-fluoro-biphenyl-4-yl)-pyrazolo[1,5-c]pyrimidin-7-ylamino]-phenyl}-benzamide]			≤ 1750
CC(=O)Nc1cccc(-c2ccc(-c3cc4c(Br)cnn4c(Nc4ccc(NC(=O)c5ccc(CN)cc5)cc4)n3)cc2)c1 [Example 90, N-{4-[5-(3′-Acetylamino-biphenyl-4-yl)-3-bromo-pyrazolo[1,5-c]pyrimidin-7-ylamino]-phenyl}-4-aminomethyl-benzamide]			≤ 1750
NCc1ccc(C(=O)Nc2ccc(Nc3nc(-c4cccc5c4oc4ccccc45)cc4c(Br)cnn34)cc2)cc1 [Example 91, 4-Aminomethyl-N-[4-(3-bromo-5-dibenzofuran-4-yl-pyrazolo[1,5-c]pyrimidin-7-ylamino) -phenyl]-benzamide]			≤ 1750

— US7745446B2, “Pyrazolo[1,5-c]pyrimidines” (Bayer Schering Pharma Aktiengesellschaft, priority 2004, dated 2010)
